# Experimental data: US20060069132A1, “Azolecarboxamide herbicides” (priority 2004, published 2006)
# Key:
# rice [1] = assay: Test B flooded paddy test; format: in vivo, Oryza sativa; conditions: 1000 g ai/ha, scale 0 to 100 (0 no effect, 100 complete control)
# Outline: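 After treating 2-leaf paddy plants or 2–18 cm postemergence plants (1 to 4 leaves) with formulated chemical, researchers kept them in a greenhouse for 13–15 days. Effects were judged visually versus controls: 0 indicates none, 100 total control.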
# lambsquarters = assay: Test B pre-/postemergence herbicide test; format: in vivo, Chenopodium album; conditions: for Lambsquarters plant response rating: postemergence
# Outline: (§1)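 Flooded paddy rice and barnyardgrass were treated at the 2-leaf stage; upland plantings received compound either on sown seed or on 1- to 4-leaf seedlings. All were kept 13–15 days in a greenhouse and scored visually, 0–100, relative to untreated plants.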
# rice [2] = assay: Test B pre-/postemergence herbicide test; format: in vivo, Oryza sativa; conditions: 0 = no effect, 100 = complete control, preemergence
# Outline: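 Evaluation is visual, comparing treated with control plants on a scale where 0 means no effect and 100 means full control. Treatments were preemergence, or postemergence on seedlings 2–18 cm tall, and held 13–15 days in the greenhouse.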
# ducksalad [3] = assay: Test C flooded paddy test; format: in vivo, Heteranthera limosa
# Surinam grass = assay: Test B pre-/postemergence herbicide test; format: in vivo, Urochloa decumbens; conditions: for Surinam Grass plant response rating: postemergence
# Outline: as §1
# barnyardgrass [4] = assay: Test C flooded paddy test; format: in vivo, Echinochloa crus-galli
# Outline: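 Ratings (0 = no effect, 100 = complete control) come from visual comparison with untreated plants after 12 to 14 days in the greenhouse. Treatment was postemergence at the 1- to 4-leaf stage (2–18 cm), or at the 2-leaf stage for the flooded paddy barnyardgrass.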
# cocklebur = assay: Test B pre-/postemergence herbicide test; format: in vivo, Xanthium strumarium; conditions: for Cocklebur plant response rating: postemergence, scale 0 (no effect) to 100 (complete control)
# Outline: (§2)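 Formulation: non-phytotoxic solvent mix with surfactant. Timing: preemergence on seed and postemergence on 2–18 cm plants, applied concurrently. Readout after 13–15 d greenhouse: visual 0–100 control rating against controls.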
# velvetleaf = assay: Test B pre-/postemergence herbicide test; format: in vivo, Abutilon theophrasti; conditions: for Velvetleaf plant response rating: postemergence
# Outline: as §1
# corn = assay: Test B pre-/postemergence herbicide test; format: in vivo, Zea mays; conditions: for Corn plant response rating: postemergence
# Outline: as §1
# pigweed = assay: Test B pre-/postemergence herbicide test; format: in vivo, Amaranthus retroflexus; conditions: for Pigweed plant response rating: postemergence
# Outline: as §1
# morningglory = assay: Test B pre-/postemergence herbicide test; format: in vivo, Ipomoea coccinea; conditions: for Morningglory plant response rating: postemergence
# Outline: as §2
# ducksalad [5] = assay: Test B flooded paddy test; format: in vivo, Heteranthera limosa; conditions: 1000 g ai/ha, scale 0 to 100 (0 no effect, 100 complete control)
# Outline: (§3)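 Scale 0–100: zero equals no visible effect, 100 complete control, judged by eye relative to controls. Timing: 13 to 15 days in greenhouse post-treatment. Growth stage at spraying: two leaves (paddy) or one to four leaves, 2–18 cm (postemergence).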
# barnyardgrass [6] = assay: Test B flooded paddy test; format: in vivo, Echinochloa crus-galli; conditions: 1000 g ai/ha, scale 0 to 100 (0 no effect, 100 complete control)
# Outline: as §3
# [7] = test system: smallflower umbrella sedge; assay: Test C flooded paddy test; format: in vivo, Cyperus difformis
# [8] = test system: small flower umbrella sedge; assay: Test B flooded paddy test; format: in vivo, Cyperus difformis; conditions: 1000 g ai/ha, scale 0 to 100 (0 no effect, 100 complete control)
# Outline: as §3
# rice [9] = assay: Test C flooded paddy test; format: in vivo, Oryza sativa
# Outline: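 Injury scored visually against controls on a 0 (no effect) to 100 (complete control) scale, 12 to 14 days after treatment in greenhouse. Flooded paddy plants treated at 2-leaf stage; postemergence plants at 1- to 4-leaf stage, 2 to 18 cm tall.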
# wild oat = assay: Test B postemergence herbicide test; format: in vivo, Avena fatua; conditions: postemergence
# Outline: (§4)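 Each value is a visual 0–100 response rating taken against controls 13 to 15 days after treatment in the greenhouse. Plants received formulated chemical postemergence at the 1- to 4-leaf stage or, in flooded paddy, at the 2-leaf stage.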
# blackgrass = assay: Test B postemergence herbicide test; format: in vivo, Alopecurus myosuroides; conditions: postemergence, visual rating, scale 0 (no effect) to 100 (complete control)
# Outline: as §3
# barnyardgrass [10] = assay: Test B pre-/postemergence herbicide test; format: in vivo, Echinochloa crus-galli; conditions: for Barnyardgrass plant response rating: postemergence, scale 0 (no effect) to 100 (complete control)
# Outline: as §2
# giant foxtail = assay: Test B pre-/postemergence herbicide test; format: in vivo, Setaria faberi; conditions: for Foxtail, Giant plant response rating: postemergence
# Outline: as §1
# wheat = assay: Test B postemergence herbicide test; format: in vivo, Triticum aestivum; parameters: key to Wheat plant response rating: 0 = no effect, 100 = complete control; conditions: postemergence
# Outline: as §4
# large crabgrass = assay: Test B pre-/postemergence herbicide test; format: in vivo, Digitaria sanguinalis; conditions: for Crabgrass, Large plant response rating: postemergence
# Outline: as §1
# [11] = 500 g ai/ha, visual rating, 0 = no effect, 100 = complete control, preemergence
# [12] = 125 g ai/ha, visual rating, scale 0 (no effect) to 100 (complete control)
# [13] = 500 g ai/ha, scale 0 to 100, 0 is no effect, 100 is complete control
# [14] = 125 g ai/ha, scale 0 to 100 (0 no effect, 100 complete control)
# [15] = 250 g ai/ha, scale of 0 to 100, 0 is no effect, 100 is complete control
# [16] = 500 g ai/ha, visual rating after 12 to 14 days, scale 0 to 100 (0 no effect, 100 complete control)
# [17] = 125 g ai/ha, 0 = no effect, 100 = complete control, preemergence
smiles,measurement,setting,value
CCn1nc(C(C)(C)C)cc1C(=O)Nc1ccnc(C(=O)N(C)C)c1 [Compound 256],Rice plant response rating,rice [1],50
same,"Plant response rating, Lambsquarters",lambsquarters; [11],100
same,Lambsquarters plant response rating,lambsquarters; [12],30
same,Lambsquarters plant response rating,lambsquarters; [13],60
same,Rice plant response rating (0 to 100 scale),rice [2]; 125 g ai/ha,30
same,"Plant response rating, Rice","rice [2]; 500 g ai/ha, visual rating",80
same,Ducksalad plant response rating,"ducksalad [3]; 62 g ai/ha, scale 0 to 100",0
same,Ducksalad plant response rating,ducksalad [3]; [14],0
same,Ducksalad plant response rating,ducksalad [3]; [15],15
same,"Plant response rating, Ducksalad",ducksalad [3]; [16],65
same,Surinam Grass plant response rating (0 to 100 scale),Surinam grass; [17],60
same,"Plant response rating, Surinam Grass",Surinam grass; [11],60
same,Surinam Grass plant response rating,Surinam grass; [12],0
same,Surinam Grass plant response rating,Surinam grass; [13],20
same,Barnyardgrass plant response rating,"barnyardgrass [4]; 62 g ai/ha, scale 0 to 100 (0 no effect, 100 complete control)",0
same,Barnyardgrass plant response rating,barnyardgrass [4]; [14],0
same,Barnyardgrass plant response rating,barnyardgrass [4]; [15],0
same,"Plant response rating, Barnyardgrass",barnyardgrass [4]; [16],0
same,Cocklebur plant response rating (0 to 100 scale),cocklebur; [17],0
same,"Plant response rating, Cocklebur",cocklebur; [11],0
same,Cocklebur plant response rating,"cocklebur; 125 g ai/ha, visual rating",0
same,Cocklebur plant response rating,"cocklebur; 500 g ai/ha, visual rating",0
same,Velvetleaf plant response rating (0 to 100 scale),velvetleaf; [17],0
same,"Plant response rating, Velvetleaf",velvetleaf; [11],80
same,Velvetleaf plant response rating,velvetleaf; [12],10
same,Velvetleaf plant response rating,velvetleaf; [13],30
same,Corn plant response rating (0 to 100 scale),corn; [17],0
same,"Plant response rating, Corn",corn; [11],0
same,Corn plant response rating,corn; [12],0
same,Corn plant response rating,corn; [13],10
same,"Plant response rating, Pigweed",pigweed; [11],100
same,Pigweed plant response rating,pigweed; [12],30
same,Pigweed plant response rating,pigweed; [13],60
same,Morningglory plant response rating (0 to 100 scale),morningglory; [17],0
same,"Plant response rating, Morningglory",morningglory; [11],0
same,Morningglory plant response rating,morningglory; [12],0
same,Morningglory plant response rating,morningglory; [13],10
same,Ducksalad plant response rating,ducksalad [5],90
same,Barnyardgrass plant response rating,barnyardgrass [6],30
same,"Sedge, Umbrella plant response rating","[7]; 62 g ai/ha, scale 0 to 100",0
same,"Sedge, Umbrella plant response rating",[7]; [14],0
same,"Sedge, Umbrella plant response rating",[7]; [15],60
same,"Plant response rating, Sedge, Umbrella",[7]; [16],60
same,"Sedge, Umbrella plant response rating",[8],70
same,Rice plant response rating,"rice [9]; 62 g ai/ha, scale 0 to 100",0
same,Rice plant response rating,rice [9]; [14],0
same,Rice plant response rating,rice [9]; [15],0
same,"Plant response rating, Rice",rice [9]; [16],15
same,"Oat, Wild plant response rating",wild oat; [12],10
same,"Oat, Wild plant response rating",wild oat; [13],30
same,Blackgrass plant response rating,blackgrass; 125 g ai/ha,0
same,Blackgrass plant response rating,blackgrass; 500 g ai/ha,20
same,Barnyardgrass plant response rating (0 to 100 scale),barnyardgrass [10]; [17],0
same,"Plant response rating, Barnyardgrass",barnyardgrass [10]; [11],70
same,Barnyardgrass plant response rating,"barnyardgrass [10]; 125 g ai/ha, visual rating",0
same,Barnyardgrass plant response rating,"barnyardgrass [10]; 500 g ai/ha, visual rating",60
same,"Foxtail, Giant plant response rating (0 to 100 scale)",giant foxtail; [17],0
same,"Plant response rating, Foxtail, Giant",giant foxtail; [11],60
same,"Foxtail, Giant plant response rating",giant foxtail; [12],0
same,"Foxtail, Giant plant response rating",giant foxtail; [13],50
same,Wheat plant response rating,wheat; [12],10
same,Wheat plant response rating,wheat; [13],30
same,"Crabgrass, Large plant response rating (0 to 100 scale)",large crabgrass; [17],10
same,"Plant response rating, Crabgrass, Large",large crabgrass; [11],100
same,"Crabgrass, Large plant response rating",large crabgrass; [12],0
same,"Crabgrass, Large plant response rating",large crabgrass; [13],20
